Read-outs that look alike come from different tables or passages of the source.
Tested on: MCF-7 cells
Assay: cells
Type: cell-based
Details: for Maximal Cell Kill (% fraction of dead cells) / cytotoxicity at 10 µM: 10 μmol/l; for Maximal Agonism (% of E2) / Emax: maximal growth stimulus at any concentration, 4 days; for cytotoxicity at 10 µM / inhibition at 1 µM / Emax: Homo sapiens, MCF7, 96 h; for cytotoxicity at 10 µM: read-out: Maximal Cell Kill (% fraction of dead cells); for inhibition at 1 µM: read-out: Antagonism at 1 μM (% of full antagonism); for Emax: read-out: Maximal Agonism (% of E2); for Killing of MCF-7 cells at the highest investigated concentration (in words): 10 μM, compounds with weak hormonal activity
Description: Evaluation of Estrogenic and Antiestrogenic Properties of Compounds in MCF-7 Cell Growth Experiments in Vitro
For experiments involving hormone or anti-hormone treatment, the cells in exponential growth phase were precultivated in the absence of estradiol for one day. […] After the incubation period the medium was removed. The exposure to study drugs was started immediately by adding fresh medium with 5% stripped serum. Half of the cells were grown with estradiol, half without estradiol. Study compounds (dissolved in ethanol in 0.01 M concentration and diluted with the growth medium as appropriate) were added. The final concentrations of the compounds were 1, 10, and 100 nM, and 1 and 10 μM. The cells were incubated for four days.
This method allows evaluation of estrogenicity based on the ability of the compounds to stimulate the growth of the estrogen-dependent cells in the absence of estradiol.
Estrogenicity was estimated by comparing the maximal growth stimulus (at any concentration) of study compound as percent from growth stimulus by estradiol (100% stimulus). […] At high concentrations molecules may also show toxicity. Toxicity was estimated as the fraction of dead cells (i.e. 100% means that all cells have died during the exposure).

Structure (SMILES) | cytotoxicity at 10 µM (With estradiol (E2)) [%] | cytotoxicity at 10 µM (Without estradiol (E2)) [%] | inhibition at 1 µM (With estradiol (E2)) [%] | Emax (Without estradiol (E2)) [%] | also measured
CCCCN(C)C(=O)CCCCCCCCCC[C@@H]1Cc2cc(O)ccc2[C@H]2CC[C@]3(C)[C@@H](O)CC[C@H]3[C@H]12 [ICI 164,384, reference compound] | – | – | – | – | Antagonism at 1 μM (% of full antagonism) (With estradiol (E2)): 100 % of full antagonism; Maximal Cell Kill (% fraction of dead cells) (With estradiol (E2)): 100 % fraction of dead cells; Maximal Cell Kill (% fraction of dead cells) (Without estradiol (E2)): 100 % fraction of dead cells; Maximal Agonism (% of E2) (Without estradiol (E2)): 9 % of E2
ClCCOc1ccc(/C(=C(/CCCl)c2ccc(Cl)cc2)c2ccc(Cl)cc2)cc1 [No. 6, (E)-4-Chloro-1-[4-(2-chloroethoxy)phenyl]-1,2-bis(4-chlorophenyl)-but-1-ene] | 40 | 47 | 16 | 0 | –
ClCCOCCOc1ccc(/C(=C(/CCCl)c2ccccc2)c2ccc(Cl)cc2)cc1 [No. 14] | – | – | – | – | Antagonism at 1 μM (% of full antagonism) (With estradiol (E2)): 27 % of full antagonism; Maximal Cell Kill (% fraction of dead cells) (With estradiol (E2)): 57 % fraction of dead cells; Maximal Cell Kill (% fraction of dead cells) (Without estradiol (E2)): 10 % fraction of dead cells; Maximal Agonism (% of E2) (Without estradiol (E2)): 12 % of E2
Fc1ccc(/C(=C(\CCCl)c2ccccc2)c2ccc(OCCOCCCl)cc2)cc1 [No. 15] | – | – | – | – | Antagonism at 1 μM (% of full antagonism) (With estradiol (E2)): 5 % of full antagonism; Maximal Cell Kill (% fraction of dead cells) (With estradiol (E2)): 9 % fraction of dead cells; Maximal Cell Kill (% fraction of dead cells) (Without estradiol (E2)): 82 % fraction of dead cells; Maximal Agonism (% of E2) (Without estradiol (E2)): 74 % of E2
OCCOc1ccc(C(=C(CCCl)c2ccccc2)c2ccc(OCCO)cc2)cc1 [No. 16, 2-(4-{4-Chloro-1-[4-(2-hydroxyethoxy)phenyl]-2-phenyl-but-1-enyl}phenoxy)1-ethanol] | – | – | – | – | Killing of MCF-7 cells at the highest investigated concentration (in words): kill MCF-7 cells (human breast cancer cells) effectively
ClCC/C(=C(\c1ccccc1)c1ccc(OCCn2ccnc2)cc1)c1ccccc1 [No. 21, (Z)-1-{2-[4-(4-Chloro-1,2-diphenyl-but-1-enyl)phenoxy]ethyl}-1H-imidazole] | 91 | 80 | 0 | 5 | –
CN(CCO)CCOc1ccc(/C(=C(/CCCl)c2ccccc2)c2ccccc2)cc1 [No. 22, (Z)-2-({2-[4-(4-Chloro-1,2-diphenyl-but-1-enyl)phenoxy]ethyl}methylamino)ethanol] | 41 | 15 | 12 | 1 | –
COc1ccc(/C(=C(\CCCl)c2ccc(Cl)cc2)c2ccc(OCCN(C)C)cc2)cc1 [No. 26, (Z)-(2-{4-[4-Chloro-2-(4-chlorophenyl)-1-(4-methoxyphenyl)but-1-enyl]phenoxy}-ethyl)dimethylamine] | – | – | – | – | Killing of MCF-7 cells at the highest investigated concentration (in words): kill MCF-7 cells (human breast cancer cells) effectively
COc1ccc(/C(=C(/CCCl)c2ccc(Cl)cc2)c2ccc(OCCN(C)C)cc2)cc1 [No. 27, (E)-(2-{4-[4-Chloro-2-(4-chlorophenyl)-1-(4-methoxyphenyl)but-1-enyl]phenoxy}-ethyl)dimethylamine] | – | – | – | – | Killing of MCF-7 cells at the highest investigated concentration (in words): kill MCF-7 cells (human breast cancer cells) effectively
COc1cccc(/C(CCCl)=C(/c2ccccc2)c2ccc(OCCN3CCCCC3)cc2)c1 [No. 28, (Z)-1-(2-{4-[4-Chloro-2-(3-methoxyphenyl)-1-phenylbut-1-enyl]phenoxy}-ethyl)piperidine] | 92 | 86 | 18 | 3 | –
COc1ccccc1/C(CCCl)=C(/c1ccccc1)c1ccc(OCCN2CCCCC2)cc1 [No. 30, (Z)-1-(2-{4-[4-Chloro-2-(2-methoxyphenyl)-1-phenylbut-1-enyl]phenoxy}-ethyl)piperidine] | 92 | 91 | 4 | 5 | –
OCCCOc1ccc(/C(=C(/CCCl)c2ccccc2)c2ccccc2)cc1 [No. 35, (Z)-3-[4-(4-Chloro-1,2-diphenylbut-1-enyl)phenoxy]propan-1-ol] | – | – | – | 45 | –

Reference: patent US6875775B2, “Triphenylalkene derivatives and their use as selective estrogen receptor modulators” (Hormos Medical Oy LTD, priority 1999, dated 2005)
